Experimental data: PubChem BioAssay (NCI)
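Cells were grown in 96-well plates and exposed to each compound for 48 hours at five concentrations; endpoints were interpolated linearly between bracketing concentrations, or set to the highest concentration if not reached. Definition used: TGI = concentration required for complete inhibition of growth.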

Columns and labels:
Assay in all cases: NCI anticancer screen, dose series, 48 h
HOP-18 NSCLC = system: HOP-18 NSCLC
SK-MEL-28 melanoma = system: SK-MEL-28 melanoma
XF 498 CNS = system: XF 498 CNS
NCI-H460 lung = system: NCI-H460 lung
SR leukemia = system: SR leukemia
HCT-116 colon = system: HCT-116 colon
MCF7 breast = system: MCF7 breast
M14 melanoma = system: M14 melanoma
SK-MEL-2 melanoma = system: SK-MEL-2 melanoma
NCI-H226 lung = system: NCI-H226 lung

SMILES: C/C(=N\NC(=S)N1CC2CCC(CC2)C1)c1nccs1
- TGI (HOP-18 NSCLC): 7.95 µM
- TGI (SK-MEL-28 melanoma): 19.3 µM
- TGI (XF 498 CNS): 13.8 µM
- TGI (NCI-H460 lung): 3.67 µM
- TGI (SR leukemia): 6.91 µM
- TGI (HCT-116 colon): 13.4 µM
- TGI (MCF7 breast): 14 µM
- TGI (M14 melanoma): 1.6 µM
- TGI (SK-MEL-2 melanoma): 15.7 µM
- TGI (NCI-H226 lung): 4.7 µM

SMILES: CSC(=Nc1nnc(-c2ccc([N+](=O)[O-])cc2)s1)SC
- TGI (HOP-18 NSCLC): > 71.6 µM
- TGI (SK-MEL-28 melanoma): > 100 µM
- TGI (XF 498 CNS): 43.3 µM
- TGI (NCI-H460 lung): > 100 µM
- TGI (SR leukemia): > 100 µM
- TGI (HCT-116 colon): > 83.7 µM
- TGI (MCF7 breast): > 100 µM
- TGI (M14 melanoma): > 100 µM
- TGI (SK-MEL-2 melanoma): > 91.6 µM
- TGI (NCI-H226 lung): > 100 µM
